Laboratory results as given in ChEMBL document CHEMBL1697821, “Development of a phospholipidosis database and predictive quantitative structure-activity relationship (QSAR) models” (Toxicol Mech Methods, 2008).

System: Phospholipidosis
Test: Literature-mined public compounds from Kruhlak et al phospholipidosis modelling dataset

SMILES: CC1CC(OC(=O)C(O)c2ccccc2)CC(C)(C)C1 (stereo not drawn) [CYCLANDELATE]
- Phospholipidosis: Negative: based on the absence of positive reported data from WMDD

SMILES: CCCCC[C@H](O)/C=C/[C@@H]1[C@@H](C/C=C\CCCC(=O)O)[C@@H](O)C[C@H]1O [DINOPROST]
- Phospholipidosis: Negative: based on the absence of positive reported data from WMDD

SMILES: NS(=O)(=O)c1cc2c(cc1C(F)(F)F)NC(Cc1ccccc1)NS2(=O)=O (stereo not drawn) [BENDROFLUMETHIAZIDE]
- Phospholipidosis: Negative: based on the absence of positive reported data from WMDD

SMILES: O=C(O)c1cc(/N=N/c2ccc(O)c(C(=O)O)c2)ccc1O [OLSALAZINE]
- Phospholipidosis: Negative: based on the absence of positive reported data from WMDD

SMILES: CCCCC(C)(O)C/C=C/[C@H]1[C@H](O)CC(=O)[C@@H]1CCCCCCC(=O)OC (stereo partly drawn) [MISOPROSTOL]
- Phospholipidosis: Negative: based on the absence of positive reported data from WMDD

SMILES: CCCCCCCCCCC(=O)O[C@H]1CC[C@H]2[C@@H]3CCc4cc(O)ccc4[C@H]3CC[C@]12C [ESTRADIOL UNDECYLATE]
- Phospholipidosis: Negative: based on the absence of positive reported data from WMDD

SMILES: CN(C)C(=O)CCCOC(=O)C(C)(C)Oc1ccc(Cl)cc1 [CLOFIBRIDE]
- Phospholipidosis: Negative: based on the absence of positive reported data from WMDD

SMILES: OC(CCCN1CCCCC1)(c1ccccc1)c1ccccc1 [DIPHENIDOL]
- Phospholipidosis: Negative: based on the absence of positive reported data from WMDD

SMILES: Nc1nc(=O)[nH]cc1F [FLUCYTOSINE]
- Phospholipidosis: Negative: based on the absence of positive reported data from WMDD

SMILES: Cc1ccc(C(=O)C(C)CN2CCCCC2)cc1 (stereo not drawn) [TOLPERISONE]
- Phospholipidosis: Negative: based on the absence of positive reported data from WMDD

SMILES: CN[C@@H](C)[C@@H](O)c1ccccc1 [PSEUDOEPHEDRINE]
- Phospholipidosis: Negative: based on the absence of positive reported data from WMDD

SMILES: COC1=CC(=O)C[C@@H](C)[C@]12Oc1c(Cl)c(OC)cc(OC)c1C2=O [GRISEOFULVIN]
- Phospholipidosis: Negative: based on the absence of positive reported data from WMDD

SMILES: CCCCN(CCCC)CCC(O)c1cc2c(Cl)cc(Cl)cc2c2cc(C(F)(F)F)ccc12 (stereo not drawn) [HALOFANTRINE]
- Phospholipidosis: Negative: based on the absence of positive reported data from WMDD

SMILES: NC[C@@H]1CC[C@@H](N)[C@@H](O[C@H]2[C@H](O)[C@@H](O[C@H]3O[C@H](CO)[C@@H](O)[C@H](N)[C@H]3O)[C@H](N)C[C@@H]2N)O1 [DIBEKACIN]
- Phospholipidosis: Positive: strong inducer confirmed by electron microscopy

SMILES: CN(C)CCCC1(c2ccc(F)cc2)OCc2cc(C#N)ccc21 (stereo not drawn) [CITALOPRAM]
- Phospholipidosis: Positive: strong inducer confirmed by electron microscopy

SMILES: Cc1ccc(Cl)c(OCC(O)CNC(C)(C)C)c1 (stereo not drawn) [BUPRANOLOL]
- Phospholipidosis: Negative: based on the absence of positive reported data from WMDD

SMILES: COCCOC(=O)C1=C(C)NC(C)=C(C(=O)OC(C)C)C1c1cccc([N+](=O)[O-])c1 (stereo not drawn) [NIMODIPINE]
- Phospholipidosis: Negative: based on the absence of positive reported data from WMDD

SMILES: NC(=O)c1ncn([C@@H]2O[C@H](CO)[C@@H](O)[C@H]2O)n1 [RIBAVIRIN]
- Phospholipidosis: Negative: based on the absence of positive reported data from WMDD

SMILES: NC(=O)N1c2ccccc2C=Cc2ccccc21 [CARBAMAZEPINE]
- Phospholipidosis: Negative: confirmed by electron microscopy

SMILES: CC(=O)O[C@H]1CC[C@@]2(C)C(=CC[C@@H]3[C@@H]2CC[C@]2(C)C(=O)CC[C@@H]32)C1 [DEHYDROEPIANDROSTERONE ACETATE]
- Phospholipidosis: Negative: based on the absence of positive reported data from WMDD

SMILES: Oc1c(Cl)cc(Cl)c2cccnc12 [CHLOROXINE]
- Phospholipidosis: Negative: based on the absence of positive reported data from WMDD

SMILES: N=C(N)NCCN1CCCCCCC1 [GUANETHIDINE]
- Phospholipidosis: Negative: based on the absence of positive reported data from WMDD

SMILES: CO[C@H]1[C@@H](O)C[C@H](O[C@H]2[C@@H](O)C[C@H](O[C@H]3[C@@H](O)C[C@H](O[C@H]4CC[C@@]5(C)[C@H](CC[C@@H]6[C@@H]5C[C@@H](O)[C@]5(C)[C@@H](C7=CC(=O)OC7)CC[C@]65O)C4)O[C@@H]3C)O[C@@H]2C)O[C@@H]1C [METILDIGOXIN]
- Phospholipidosis: Negative: based on the absence of positive reported data from WMDD

SMILES: CN(CC(=O)N1CCOCC1)Cc1c(Cl)cccc1NC(=O)c1ccccc1 [FOMINOBEN]
- Phospholipidosis: Negative: based on the absence of positive reported data from WMDD

SMILES: CC[N+]1(C)[C@@H]2CC(OC(=O)[C@H](CO)c3ccccc3)C[C@H]1[C@@H]1O[C@@H]12.[Br-] (stereo partly drawn) [OXITROPIUM BROMIDE]
- Phospholipidosis: Negative: based on the absence of positive reported data from WMDD

SMILES: CCn1cc(C(=O)O)c(=O)c2ccc(C)nc21 [NALIDIXIC ACID]
- Phospholipidosis: Negative: based on the absence of positive reported data from WMDD

SMILES: CNS(=O)(=O)Cc1ccc2[nH]cc(CCN(C)C)c2c1
- Phospholipidosis: Negative: confirmed by electron microscopy

SMILES: O=c1[nH]c(=O)n([C@H]2C[C@H](O)[C@@H](CO)O2)cc1F [FLOXURIDINE]
- Phospholipidosis: Negative: based on the absence of positive reported data from WMDD

SMILES: Cc1cc2nc3c(=O)[nH]c(=O)nc-3n(C[C@H](O)[C@H](O)[C@H](O)CO)c2cc1C [RIBOFLAVIN]
- Phospholipidosis: Negative: based on the absence of positive reported data from WMDD

SMILES: CC(C)(N)CO [DEANOL]
- Phospholipidosis: Negative: based on the absence of positive reported data from WMDD

SMILES: CO[C@@]1(NC(=O)C2SC(=C(C(N)=O)C(=O)O)S2)C(=O)N2C(C(=O)O)=C(CSc3nnnn3C)CS[C@@H]21 (stereo partly drawn) [CEFOTETAN]
- Phospholipidosis: Negative: based on the absence of positive reported data from WMDD

SMILES: O=C(O)c1cc(O)c2c(c1)[C@@H]([C@H]1c3cc(C(=O)O)cc(O)c3C(=O)c3c(O[C@@H]4O[C@H](CO)[C@@H](O)[C@H](O)[C@H]4O)cccc31)c1cccc(O[C@@H]3O[C@H](CO)[C@@H](O)[C@H](O)[C@H]3O)c1C2=O [SENNOSIDE B]
- Phospholipidosis: Negative: based on the absence of positive reported data from WMDD

SMILES: CC(C)NCC(O)COc1ccc(CCOCC2CC2)cc1 (stereo not drawn) [BETAXOLOL]
- Phospholipidosis: Negative: based on the absence of positive reported data from WMDD

SMILES: CCN(CC)C(=O)[C@@H]1C=C2c3cccc4[nH]cc(c34)C[C@H]2N(C)C1 [LYSERGIDE]
- Phospholipidosis: Positive: weak inducer based on presence of foamy macrophages and cytoplasmic vacuolations

SMILES: C[C@]12CC[C@H]3[C@@H](CC=C4C[C@@H](O)CC[C@@]43C)[C@@H]1CC[C@@H]2O [ANDROSTENEDIOL]
- Phospholipidosis: Negative: based on the absence of positive reported data from WMDD

SMILES: N=C(N)c1ccc(/C=C/c2ccc(C(=N)N)cc2O)cc1 [HYDROXYSTILBAMIDINE]
- Phospholipidosis: Negative: based on the absence of positive reported data from WMDD

SMILES: CCC(c1ccc(OCCN(CC)CC)cc1)C(CC)c1ccc(OCCN(CC)CC)cc1 (stereo not drawn) [CORALGIL]
- Phospholipidosis: Positive: strong inducer confirmed by electron microscopy

SMILES: COc1cc2nc(N3CCN(C(=O)C4CCCO4)CC3)nc(N)c2cc1OC (stereo not drawn) [TERAZOSIN]
- Phospholipidosis: Negative: based on the absence of positive reported data from WMDD

SMILES: CC[C@H](OC(C)=O)C(C[C@H](C)N(C)C)(c1ccccc1)c1ccccc1 [LEVOMETHADYL ACETATE]
- Phospholipidosis: Negative: based on the absence of positive reported data from WMDD

SMILES: Oc1ccc2c(c1)[C@@]13CCCC[C@@]1(O)[C@@H](C2)N(CC1CCC1)CC3 [BUTORPHANOL]
- Phospholipidosis: Negative: based on the absence of positive reported data from WMDD

SMILES: Cc1ccc(S(=O)(=O)NC(=O)NN2CC3CCCC3C2)cc1 (stereo not drawn) [GLICLAZIDE]
- Phospholipidosis: Negative: based on the absence of positive reported data from WMDD

SMILES: N=C(N)N/N=C1C=C/C(=N\NC(N)=S)C=C\1 [AMBAZONE]
- Phospholipidosis: Negative: based on the absence of positive reported data from WMDD

SMILES: CCN(CC)C(=S)S [DITIOCARB]
- Phospholipidosis: Negative: based on the absence of positive reported data from WMDD

SMILES: CN(C)C(=N)N=C(N)N [METFORMIN]
- Phospholipidosis: Negative: confirmed by electron microscopy

SMILES: CC1(C)S[C@@H]2[C@H](N3C(=O)[C@@H](c4ccccc4)NC3(C)C)C(=O)N2[C@H]1C(=O)O [HETACILLIN]
- Phospholipidosis: Negative: based on the absence of positive reported data from WMDD

SMILES: C1CCC(C(CC2CCCCN2)C2CCCCC2)CC1 (stereo not drawn) [PERHEXILINE]
- Phospholipidosis: Positive: strong inducer confirmed by electron microscopy

SMILES: CN[C@@H](C)[C@H](O)c1ccccc1 [EPHEDRINE]
- Phospholipidosis: Negative: based on the absence of positive reported data from WMDD

SMILES: O=C1OC(c2ccc(O)cc2)(c2ccc(O)cc2)c2ccccc21 [PHENOLPHTHALEIN]
- Phospholipidosis: Negative: based on the absence of positive reported data from WMDD

SMILES: c1ccc(CN(CC2=NCCN2)c2ccccc2)cc1 [ANTAZOLINE]
- Phospholipidosis: Negative: based on the absence of positive reported data from WMDD

SMILES: O=C(Oc1ccccc1C(=O)O)c1ccccc1O [SALSALATE]
- Phospholipidosis: Negative: based on the absence of positive reported data from WMDD

SMILES: CN1CCN(C2=Nc3cc(Cl)ccc3N(C)n3cccc32)CC1
- Phospholipidosis: Positive: strong inducer confirmed by electron microscopy

SMILES: Clc1ccc(C/C(=C\CN2CCCC2)c2ccccc2)cc1 [PYRROBUTAMINE]
- Phospholipidosis: Negative: based on the absence of positive reported data from WMDD

SMILES: CC(C)Nc1cccnc1N1CCN(C(=O)c2cc3cc(NS(C)(=O)=O)ccc3[nH]2)CC1 [DELAVIRDINE]
- Phospholipidosis: Negative: based on the absence of positive reported data from WMDD

SMILES: O=C(O)c1cccnc1 [NIACIN]
- Phospholipidosis: Negative: based on the absence of positive reported data from WMDD

SMILES: CN[C@@H]1[C@@H](O)[C@@H](O[C@@H]2[C@@H](O)[C@H](O[C@H]3O[C@H]([C@@H](C)NC)CC[C@H]3N)[C@@H](N)C[C@H]2N)OC[C@]1(C)O [GENTAMICIN C1]
- Phospholipidosis: Positive: strong inducer confirmed by electron microscopy

SMILES: Cc1oncc1C(=O)Nc1ccc(C(F)(F)F)cc1 [LEFLUNOMIDE]
- Phospholipidosis: Negative: based on the absence of positive reported data from WMDD

SMILES: COc1cc(NS(=O)(=O)c2ccc(N)cc2)nc(OC)n1 [SULFADIMETHOXINE]
- Phospholipidosis: Negative: based on the absence of positive reported data from WMDD

SMILES: Oc1c(I)cc(Cl)c2cccnc12 [CLIOQUINOL]
- Phospholipidosis: Negative: based on the absence of positive reported data from WMDD
